US6344460B1, “Propynyl uracils” (Lonza Inc., priority 2000, dated 2002)
Blank lines part the entries; values can stand above or below the compound they belong to.

Legend:
[1] = tested on: Aspergillus niger ATCC #16404; assay: Minimum inhibitory concentration by zone of inhibition assay; type: cell-based; details: 5 days contact, Day-Engley neutralizing media
Description: A. niger ATCC #16404 was contacted with each sulfone for 5 days in a Day-Engley neutralizing media.

[2] = tested on: Postia placenta (a brown rot, ATCC 11538); details: P. placenta; for IC50 (ppm): minimum concentration for 50% zone of inhibition, 9 days contact
Description: (§1) Prod J. 45(1):86-9 (1995), was performed to determine the minimum concentration of uracil necessary to achieve a 50% zone of inhibition over 9 days of contact time.

[3] = tested on: Chaetomium globosum (a soft rot, ATCC 6205); details: C. globosum; minimum concentration for 50% zone of inhibition, 9 days contact
Description: as §1

[4] = tested on: Trametes versicolor (a white rot; ATCC 42462); details: T. versicolor; for IC50 (ppm): minimum concentration for 50% zone of inhibition, 9 days contact
Description: as §1

[5] = tested on: Gloephyllium trabeum (a brown rot, ATCC 11539); details: G. trabeum; for IC50 (ppm): minimum concentration for 50% zone of inhibition, 9 days contact
Description: as §1

SMILES: O=c1[nH]cc([N+](=O)[O-])c(=O)n1CC#CI [3N-(3-iodo-2-propynyl)-5-nitrouracil]
5 Day Minimum Inhibitory Concentration Aspergillus niger [1]: 30 to 100 mg/L

SMILES: CCCCCCCCCC[N+](C)(C)CCCCCCCCCC.[Cl-] [didecydimethyl ammonium chloride, didecyldimethyl ammonium chloride, reference compound]
IC50 (ppm) [2]: 5.6 ppm
IC50 (ppm) [3]: 62.9 ppm
IC50 (ppm) [4]: 53.9 ppm
IC50 (ppm) [5]: 6.45 ppm

SMILES: O=c1c(F)cn(CC#CI)c(=O)n1-c1ccco1 [1N-(3-iodo-2-propynyl)-3N-(2-furanyl)-5-fluorouracil]
5 Day Minimum Inhibitory Concentration Aspergillus niger [1]: 30 to 100 mg/L

SMILES: O=c1ccn(CC#CI)c(=O)n1CC#CI [1N, 3N-bis(3-iodo-2-propynyl)-uracil, 1N,3N-Bis(3-iodo-2-propynyl)-uracil]
5 Day Minimum Inhibitory Concentration Aspergillus niger [1]: 3 to 10 mg/L

SMILES: Cc1cn(CC#CI)c(=O)n(CC#CI)c1=O [1N,3N-Bis(3-iodo-2-propynyl)-5-methyluracil]
5 Day Minimum Inhibitory Concentration Aspergillus niger [1]: 10 to 30 mg/L

IC50 (ppm) [2]: <5.0 ppm
IC50 (ppm) [3]: 3.22 ppm
IC50 (ppm) [4]: 6.12 ppm
IC50 (ppm) [5]: 3.22 ppm
SMILES: O=c1c(Cl)cn(CC#CI)c(=O)n1CC#CI
concentration at which a total kill was observed [2]: no more than 50 ppm
5 Day Minimum Inhibitory Concentration Aspergillus niger [1]: 10 to 30 mg/L
concentration at which a total kill was observed [4]: no more than 50 ppm
concentration at which a total kill was observed [5]: no more than 50 ppm

SMILES: O=c1ccn(CC#CI)c(=O)n1C1O[C@H](CO)[C@@H](O)[C@H]1O (stereo partly drawn) [1N-(3-iodo-2-propynyl)-3N-(D-1-ribose)-uracil]
5 Day Minimum Inhibitory Concentration Aspergillus niger [1]: 100 to 300 mg/L
